Molecules are shown by their SMILES.

The test system of series [1] is TNF-α production in LPS-stimulated human whole blood. Kind of series: Inhibition of TNF-α production from human whole blood (hWBA). The class given is cell-based. The following applies: IC50 for TNF-α production, LPS-stimulated human whole blood; read-out: hWBA.
Series [2] is described as follows: Area under the curve determination of plasma levels in rats (rrAUC). In kind it is in vivo. The following applies: rat, oral 10 mg/kg, plasma 0.5-6 h; read-out: RR AUC (nM · h), rapid rat AUC (rrAUC).

`COc1ccc2c(c1)C(=O)N(C[C@@]1(C#Cc3ccc(C(O)(O)C(F)(F)F)cc3)NC(=O)NC1=O)C2` [Compound 2252]: the IC50 in series [1] was determined as 258 nM. The exposure (AUC) in series [2] is 0.768 µM·h.
In the case of `COc1ccc2c(c1)C(=O)N(C[C@@]1(C#Cc3ccc(-c4noc(C)n4)cc3)NC(=O)NC1=O)C2` [Compound 2253], the IC50 in series [1] amounted to 2430 nM. In series [2], the AUC was 4.14 µM·h.
As to `COc1ccc2c(c1)C(=O)N(C[C@@]1(C#Cc3ccc(C4(C)NC(=O)NC4=S)cc3)NC(=O)NC1=O)C2` (stereo partly drawn) [Compound 2258], in series [1], the IC50 is 398 nM. Further, the AUC in series [2] came out at 0.438 µM·h.
For `COc1ccc2c(c1)C(=O)N(C[C@@]1(C#Cc3cccnc3-c3cnn(C)c3)NC(=O)NC1=O)C2` [Compound 2263], the IC50 in series [1] amounted to 2220 nM. Further, in series [2], the AUC was determined as 0.187 µM·h.
The matching figures for `COc1ccc2c(c1F)C(=O)N(C[C@@]1(C#Cc3cccnc3)NC(=O)NC1=O)C2` [Compound 2267]: 134 nM and 2.44 µM·h.
As to `COc1ccc2c(c1)C(=O)N(C[C@@]1(C#Cc3ccc(-c4c(C)nn(C)c4C)nc3)NC(=O)NC1=O)C2` [Compound 2268], the IC50 in series [1] was found to be 9030 nM. Further, in series [2], the AUC is 1.07 µM·h.
The matching figures for `COc1ccc2c(c1F)C(=O)N(C[C@@]1(C#Cc3cccnc3C)NC(=O)NC1=O)C2` [Compound 2273]: 193 nM and 2.89 µM·h.
Turning to `COc1ccc2c(c1F)C(=O)N(C[C@@]1(C#Cc3ccc(C)nc3)NC(=O)NC1=O)C2` [Compound 2274], the IC50 in series [1] worked out at 396 nM. The AUC in series [2] was determined as 16.4 µM·h.
Turning to `CCN1CCC(C(=O)OC)(c2ccc(C#C[C@]3(CN4Cc5ccc(OC)cc5C4=O)NC(=O)NC3=O)cc2)CC1` [Compound 2276], the IC50 in series [1] was 288 nM. Moreover, the area under the curve (AUC) in series [2] came to 2.32 µM·h.
With `COc1ccc2c(c1)C(=O)N(C[C@@]1(C#Cc3ccc(-c4ccccc4O)nc3)NC(=O)NC1=O)C2` [Compound 2277], the IC50 in series [1] was 2090 nM. Also, in series [2], the AUC worked out at 0.271 µM·h.
On to `COc1ccc2c(c1)C(=O)N(C[C@@]1(C#Cc3ccc(C4(C)NC(=O)NC4=O)c(F)c3)NC(=O)NC1=O)C2` (stereo partly drawn) [Compound 2282], for which the IC50 in series [1] came out at 243 nM. For the same compound, the AUC in series [2] is 0.042 µM·h.
The matching figures for `COc1ccc2c(c1)C(=O)N(C[C@@]1(C#Cc3ccc4c(c3)CCCC43NC(=O)NC3=O)NC(=O)NC1=O)C2` (stereo partly drawn) [Compound 2312]: 137 nM and 0.014 µM·h.

For the origin of these results see US8541572B2.
